Test results reported in patent US20240382564A1, “Methods and Compositions for Treating Muscular Dystrophy and Memory Impairment” (Allysta Pharmaceuticals, Inc., priority 2023, published 2024).
Where no end group is shown, it is not given here. [ ]: non-standard residue; d: D form. Nva = CCC[C@H](N)C(=O)O

Columns and labels:
Format in all cases: in vivo, mouse
[1] = test system: D2.mdx mice; test: Muscle cytokine mRNA by quantitative PCR
Procedure: D2.mdx mice were treated with ALY688 at two different dosages; high dose (HD; 15 mg/kg body weight/day) or low dose (LD; 3 mg/kg body weight/day) dissolved in saline. A separate group of mice were treated with saline alone (VEH, vehicle). Treatment was provided via subscapular subcutaneous injections from 7 days of age to 28-30 days. […] At 28-30 days of age, mice were anaesthetized with isoflurane vaporized in medical air (21% oxygen) at a 2 L/min flow rate. Due to tissue limitations in limb muscle, certain measures were performed separately in tibialis anterior and quadriceps across several phases of breeding. Following the treatment protocol, in situ quadriceps force assessments were then performed in one limb followed by removal of the quadriceps from the other limb for mitochondrial assessments, diaphragm for in vitro force assessments and finally other tissues for further processing as described below. Muscle and visceral organs weights were normalized to tibia length. Tissue collected from the first phase were utilized in force, histological, mitochondrial measures (respiration, mH2O2 and calcium retention capacity) and western analyses (diaphragm and quadriceps only). A second phase was then collected and utilized for cytokine profiling, qPCR analyses and additional westerns (TA only). Serum was collected from both phase 1 and 2 and utilized for serum CK analysis. All animals were utilized in in vivo functional assays (grip strength, cage hang time and voluntary wheel running).
Samples were lysed using TRIzol reagent and RNA was separated to aqueous phase using chloroform. The aqueous layer containing RNA was then mixed with isopropanol and loaded to Aurum Total RNA Mini Kit columns (Bio-Rad, Mississauga, ON, Canada). Total RNA was then extracted according to the manufacturer's instructions and concentration was assessed on the nanodrop attachment for the Varioskan LUX Multimode Microplate reader (Thermo Scientific). Reverse transcription of RNA into cDNA was performed by M-MLV reverse transcriptase and oligo (dT) primers (Qiagen). cDNA was then amplified in a CFX384 Touch Real-Time PCR Detection Systems (Bio-Rad) with a SYBR Green master mix and specific primers. Standard curves were created by plotting log DNA concentrations against Ct values from a 1:5 serial dilutions with CFX Manager Software. Gene expression was normalized to a Rplp0 control, and relative differences were determined using the ΔΔCt method Values are presented as fold increases relative to WT group.

[2] = test system: D2.mdx mice; test: Hippocampal cytokine mRNA by quantitative PCR; conditions: 15 mg/kg daily
Procedure: Male D2.mdx mice originated from a colony maintained at York University (Toronto, Canada) and sourced from Jackson Laboratories (Stock Number 013141, Bar Harbor, United States). Mice were treated daily from days 7 to 28 of age with ALY688 at 15 mg/kg b.w. (D2.mdx-ALY688) or saline control (D2.mdx-VEH). This age was chosen given it captures an early stage of disease progression in cardiac and skeletal muscle. Mice were sacrificed 20-24 hr after the last dose. Breeding of wildtype mice was unsuccessful. […]
Total RNA was isolated from hippocampus using the Aurum Total RNA Mini Kit (Bio-Rad; Mississauga, ON, Canada) according to manufacturer's instructions, and reverse transcribed into cDNA by M-MLV reverse transcriptase and oligo (dT) primers (Qiagen). cDNA was then amplified in a CFX384 Touch Real-Time PCR Detection Systems (Bio-Rad) with a SYBR Green master mix and specific primers. Gene expression was normalized to a Rplp0 control and relative differences were determined using the ΔΔCt method (Livak, K. J., & Schmittgen, T. D. (2001). Analysis of relative gene expression data using real-time quantitative PCR and the 2(-Delta Delta C(T)) Method. Methods, 25 (4), 402-408. doi: 10.1006/meth.2001.1262), normalized to D2A expression. […]

[3] = test system: D2.mdx mice; test: Serum cytokine profiling (LEGENDplex)
Procedure: Male D2.mdx mice originated from a colony maintained at York University (Toronto, Canada) and sourced from Jackson Laboratories (Stock Number 013141, Bar Harbor, United States). Mice were treated daily from days 7 to 28 of age with ALY688 at 15 mg/kg b.w. (D2.mdx-ALY688) or saline control (D2.mdx-VEH). This age was chosen given it captures an early stage of disease progression in cardiac and skeletal muscle. Mice were sacrificed 20-24 hr after the last dose. Breeding of wildtype mice was unsuccessful. Instead, three-week-old wildtype DBA/2J WT mice (D2A) were obtained from Jackson Laboratories (Stock number 000671, Bar Harbor, United States) and allowed to acclimatize for one week before sacrifice. Mice were housed in standard 12:12-hr light:dark cycles and were allowed access to standard rodent chow and water ad libitum. 4 days prior to sacrifice, all groups underwent novel object recognition acclimatization and testing as described below. Mice were anesthetized under 5% isoflurane vaporized in medical air (21% oxygen) at a flow rate of 2 L/min and then maintained at 2-3% prior to euthanasia by exsanguination. Muscles were removed and used for another investigation (under review at the time of this submission). The right and left hippocampus were then quickly dissected from the brain with a portion placed immediately into ice-cold BIOPS, containing (in mM): 50 MES Hydrate, 7.23 K2EGTA, 2.77 CaK2EGTA, 20 imidazole, 0.5 dithiothreitol, 20 taurine, 5.77 ATP, 15 PCr, and 6.56 MgCl2·6H2O (pH 7.1) or flash-frozen in liquid nitrogen and stored at −80° C. for RNA isolation and western blotting. All experiments and procedures were approved by the Animal Care Committee at York University (AUP Approval Number 2016-18) in accordance with the Canadian Council on Animal Care.
Protein contents of TGF-β, TNF-α, IL-1β, IL-6 and IL-10 in serum were measured by flow cytometry using LEGENDplex™ Mouse Custom Panel (BioLegend; San Diego, CA, USA). […] The FCS files generated on the flow cytometer were analyzed using the LEGENDplex™ cloud-based analysis software.

## [dN]IP[Nva]LY[dS]FA[dS]-NH2 [ALY688]
[1]; diaphragm, HD
  IL-10 mRNA content: not different between groups
  TGF-β mRNA contents: unchanged in all groups
  TNF-α mRNA content: not different between groups
[1]; diaphragm, HD vs VEH
  IL-1β mRNA: not affected by the drug
[1]; diaphragm, HD, increase in VEH attenuated
  IL-6 mRNA content: 51.8 % increase vs WT
[1]; tibialis anterior, HD
  attenuation of TNF-α mRNA compared to VEH: 41.4%
[2]
  hippocampal mRNA of IL-6, TNF-α or IL-10: No significant changes
[3]; relative to D2.mdx-VEH
  serum IL-1β: increased
[3]; vs D2.mdx-VEH
  serum IL-6: attenuated
[3]; vs wildtype
  serum IL-10: increasing
